Experimental data taken from PMC11995724, “Antibiotic target discovery by integrated phenotypic and activity-based profiling of electrophilic fragments” (Cell chemical biology, 2025).

Experiment: in vitro
Details: human, hek293t cells

| Compound | viability at 48 h, 25 µM [%] |
| --- | --- |
| C=CC(=O)N1CCC(S(=O)(=O)NC(C)C)C1 (stereo not drawn) [1-D19, 1-(prop-2-enoyl)-N-(propan-2-yl)pyrrolidine-3-sulfonamide] | 218 |
| C=CC(=O)Nc1ccc(-c2nc3cc(C)ccc3o2)cc1 [1-D20, N-[4-(5-methyl-1,3-benzoxazol-2-yl)phenyl]prop-2-enamide] | 1.53 |
| C=CC(=O)Nc1ccc(CN2CCC(C)CC2)cc1 [1-D21, N-{4-[(4-methylpiperidin-1-yl)methyl]phenyl}prop-2-enamide] | 157 |
| C=CC(=O)N1CC2(CCOCC2)C1c1ccco1 (stereo not drawn) [1-D22, 1-[1-(furan-2-yl)-7-oxa-2-azaspiro[3.5]nonan-2-yl]prop-2-en-1-one] | 72.1 |
| C=CC(=O)N(C)C1CS(=O)(=O)C1 [1-E03, N-(1,1-dioxo-1lambda6-thietan-3-yl)-N-methylprop-2-enamide] | 86.3 |
| C=CC(=O)Nc1cc(C(C)(C)C)nn1-c1ncccn1 [1-E04, N-[3-tert-butyl-1-(pyrimidin-2-yl)-1H-pyrazol-5-yl]prop-2-enamide] | 88.8 |
| C=CC(=O)Nc1cnn(CCF)c1 [1-E05, N-[1-(2-fluoroethyl)-1H-pyrazol-4-yl]prop-2-enamide] | 78.3 |
| C=CC(=O)N1CCC(C(=O)Nc2cc(Cl)ccc2SCC)CC1 [1-E06, N-[5-chloro-2-(ethylsulfanyl)phenyl]-1-(prop-2-enoyl)piperidine-4-carboxamide] | 111 |
| C=CC(=O)NCc1cccc2c1OCO2 [1-E07, N-[(1,3-dioxaindan-4-yl)methyl]prop-2-enamide] | 69.1 |
| C=CC(=O)NC1C(=O)OCC1(C)C (stereo not drawn) [1-E08, N-(4,4-dimethyl-2-oxooxolan-3-yl)prop-2-enamide] | 83.7 |
| C=CC(=O)N1CCC(C(=O)N2CCc3ccccc32)CC1 [1-E09, 1-[4-(2,3-dihydro-1H-indole-1-carbonyl)piperidin-1-yl]prop-2-en-1-one] | 68 |
| C=CC(=O)NC1CCC(F)(F)CC1F (stereo not drawn) [1-E11, N-(2,4,4-trifluorocyclohexyl)prop-2-enamide] | 69.4 |
| C=CC(=O)NC12CC3CC(CC(C3)C1)C2 [1-E12, N-(adamantan-1-yl)prop-2-enamide] | 56.7 |
| C=CC(=O)Nc1c(C)cccc1SCC(=O)N(C)C [1-E13, N-(2-{[(dimethylcarbamoyl)methyl]sulfanyl}-6-methylphenyl)prop-2-enamide] | 78.8 |
| C=CC(=O)N1CCC(C(=O)NCc2ccoc2C)CC1 [1-E14, N-[(2-methylfuran-3-yl)methyl]-1-(prop-2-enoyl)piperidine-4-carboxamide] | 85.4 |
| C=CC(=O)N1CCC(O)(c2ccccc2)CC1 [1-E15, 1-(4-hydroxy-4-phenylpiperidin-1-yl)prop-2-en-1-one] | 79.8 |
| C=CC(=O)Nc1cc(Cl)cc(C)c1OC [1-E16, N-(5-chloro-2-methoxy-3-methylphenyl)prop-2-enamide] | 45.9 |
| C=CC(=O)NCc1c(C(F)(F)F)coc1C [1-E17, N-{[2-methyl-4-(trifluoromethyl)furan-3-yl]methyl}prop-2-enamide] | 84.9 |
| C=CC(=O)Nc1ccc(C(N)=O)nc1OC [1-E18, 6-methoxy-5-(prop-2-enamido)pyridine-2-carboxamide] | 69.6 |

| Compound | viability at 48 h, 25 µM [%] |
| --- | --- |
| C=CC(=O)Nc1ccc2cc(N(C)C)ccc2c1 [1-E19, N-[6-(dimethylamino)naphthalen-2-yl]prop-2-enamide] | 46.5 |
| C=CC(=O)N1CCC(C(=O)NCc2ccc(Cl)cc2Cl)CC1 [1-E20, N-[(2,4-dichlorophenyl)methyl]-1-(prop-2-enoyl)piperidine-4-carboxamide] | 95.8 |
| C=CC(=O)NCC(C)(C)C1CCCCC1 [1-E21, N-(2-cyclohexyl-2-methylpropyl)prop-2-enamide] | 75.5 |
| C=CC(=O)Nc1cnn(-c2ccccc2C)c1C(F)F [1-E22, N-[5-(difluoromethyl)-1-(2-methylphenyl)-1H-pyrazol-4-yl]prop-2-enamide] | 116 |
| C=CC(=O)N1CCN(CC(=O)NC)CC1 [1-F03, N-methyl-2-[4-(prop-2-enoyl)piperazin-1-yl]acetamide] | 158 |
| C=CC(=O)N(Cc1cccc(Cl)c1F)C(C)C1CCOCC1 (stereo not drawn) [1-F04, N-[(3-chloro-2-fluorophenyl)methyl]-N-[1-(oxan-4-yl)ethyl]prop-2-enamide] | 58.7 |
| C=CC(=O)Nc1cccc2c1CCN2C(C)=O [1-F05, N-(1-acetyl-2,3-dihydro-1H-indol-4-yl)prop-2-enamide] | 110 |
| C=CC(=O)NC1CCOC1C (stereo not drawn) [1-F06, N-(2-methyloxolan-3-yl)prop-2-enamide] | 74.6 |
| C=CC(=O)N(C)Cc1ccnn1CC [1-F07, N-[(1-ethyl-1H-pyrazol-5-yl)methyl]-N-methylprop-2-enamide] | 100 |
| C=CC(=O)Nc1cc(SCc2ccccc2C)ncn1 [1-F08, N-(6-{[(2-methylphenyl)methyl]sulfanyl}pyrimidin-4-yl)prop-2-enamide] | 0.816 |
| C=CC(=O)N(Cc1c(C)cccc1OC)C1CCCCNC1=O (stereo not drawn) [1-F09, N-[(2-methoxy-6-methylphenyl)methyl]-N-(2-oxoazepan-3-yl)prop-2-enamide] | 85.8 |
| C=CC(=O)NC(C)Cn1nc(C)cc1C (stereo not drawn) [1-F10, N-[1-(3,5-dimethyl-1H-pyrazol-1-yl)propan-2-yl]prop-2-enamide] | 55.7 |
| C=CC(=O)N(Cc1nccc2c1CCCC2)C1CCCC(OC)C1 (stereo not drawn) [1-F11, N-(3-methoxycyclohexyl)-N-[(5,6,7,8-tetrahydroisoquinolin-1-yl)methyl]prop-2-enamide] | 100 |
| C=CC(=O)NCCC(=O)N1CCC2(CC(=O)c3ccccc3O2)C1 (stereo not drawn) [1-F12, N-(3-oxo-3-{4-oxo-3,4-dihydrospiro[1-benzopyran-2,3'-pyrrolidin]-1'-yl}propyl)prop-2-enamide] | 82.1 |
| C=CC(=O)N(Cc1cc(F)cc(Cl)c1)C(C)C1CCOCC1 (stereo not drawn) [1-F13, N-[(3-chloro-5-fluorophenyl)methyl]-N-[1-(oxan-4-yl)ethyl]prop-2-enamide] | 110 |
| C=CC(=O)Nc1cn(C)nc1OC(C)C [1-F14, N-[1-methyl-3-(propan-2-yloxy)-1H-pyrazol-4-yl]prop-2-enamide] | 71.2 |
| C=CC(=O)N(Cc1nonc1C)CC1C(C)=CCCC1C (stereo not drawn) [1-F15, N-[(2,6-dimethylcyclohex-2-en-1-yl)methyl]-N-[(4-methyl-1,2,5-oxadiazol-3-yl)methyl]prop-2-enamide] | 108 |
| C=CC(=O)NC1CCCCC12CCCC2 (stereo not drawn) [1-F16, N-{spiro[4.5]decan-6-yl}prop-2-enamide] | 77.6 |
| C=CC(=O)NCC12CC3CC(CC(C3)C1)C2 [1-F17, N-[(adamantan-1-yl)methyl]prop-2-enamide] | 110 |

| Compound | viability at 48 h, 25 µM [%] |
| --- | --- |
| C=CC(=O)NC1(c2cc(C)no2)CCOCC1 [1-F18, N-[4-(3-methyl-1,2-oxazol-5-yl)oxan-4-yl]prop-2-enamide] | 68.5 |
| C=CC(=O)N1CCCC1c1c(C)nn(CC(C)C)c1Cl (stereo not drawn) [1-F19, 1-{2-[5-chloro-3-methyl-1-(2-methylpropyl)-1H-pyrazol-4-yl]pyrrolidin-1-yl}prop-2-en-1-one] | 119 |
| C=CC(=O)N1CCOC(Cn2cncn2)C1 (stereo not drawn) [1-F20, 1-{2-[(1H-1,2,4-triazol-1-yl)methyl]morpholin-4-yl}prop-2-en-1-one] | 85.3 |
| C=CC(=O)Nc1sc2c(c1C(N)=O)CCCCC2 [1-F21, 2-(prop-2-enamido)-4H,5H,6H,7H,8H-cyclohepta[b]thiophene-3-carboxamide] | 113 |
| C=CC(=O)NCC1(C)CCC(C)(C)CC1 [1-F22, N-[(1,4,4-trimethylcyclohexyl)methyl]prop-2-enamide] | 83.2 |
| C=CC(=O)N1CSCC1C(=O)N(C)C (stereo not drawn) [1-G03, N,N-dimethyl-3-(prop-2-enoyl)-1,3-thiazolidine-4-carboxamide] | 75.4 |
| C=CC(=O)Nc1ccccc1Sc1nncs1 [1-G04, N-[2-(1,3,4-thiadiazol-2-ylsulfanyl)phenyl]prop-2-enamide] | 32.3 |
| C=CC(=O)NC(c1ccccc1)C1CCC1 (stereo not drawn) [1-G05, N-[cyclobutyl(phenyl)methyl]prop-2-enamide] | 76.5 |
| C=CC(=O)Nc1ccc(O)c(C(=O)O)c1 [1-G06, 2-hydroxy-5-(prop-2-enamido)benzoic acid] | 70.3 |
| C=CC(=O)NCc1nncn1-c1ccccc1 [1-G07, N-[(4-phenyl-4H-1,2,4-triazol-3-yl)methyl]prop-2-enamide] | 77.3 |
| C=CC(=O)N1CCCC1 [1-G08, 1-(pyrrolidin-1-yl)prop-2-en-1-one] | 70.2 |
| C=CC(=O)N(Cc1cn(C2CCC2)nn1)c1ccc(F)cc1 [1-G09, N-[(1-cyclobutyl-1H-1,2,3-triazol-4-yl)methyl]-N-(4-fluorophenyl)prop-2-enamide] | 37.6 |
| C=CC(=O)Nc1cccc2ccccc12 [1-G10, N-(naphthalen-1-yl)prop-2-enamide] | 53.4 |
| C=CC(=O)Nc1nc2cc(C(F)(F)F)ccc2n1Cc1ccco1 [1-G11, N-{1-[(furan-2-yl)methyl]-5-(trifluoromethyl)-1H-1,3-benzodiazol-2-yl}prop-2-enamide] | 72.5 |
| C=CC(=O)N1CCCC(C(=O)O)C1 (stereo not drawn) [1-G12, 1-(prop-2-enoyl)piperidine-3-carboxylic acid] | 60.4 |
| C=CC(=O)Nc1ccc2c(c1)N(C)CC2 [1-G13, N-(1-methyl-2,3-dihydro-1H-indol-6-yl)prop-2-enamide] | 67.7 |
| C=CC(=O)Nc1cccc(C(=O)C(F)F)c1 [1-G14, N-[3-(2,2-difluoroacetyl)phenyl]prop-2-enamide] | 50.4 |
| C=CC(=O)N1CCN(S(C)(=O)=O)[C@H](C)C1 [1-G15, 1-[(3R)-4-methanesulfonyl-3-methylpiperazin-1-yl]prop-2-en-1-one] | 101 |
| C=CC(=O)NCC1(C)CCS(=O)(=O)CC1 [1-G16, N-[(4-methyl-1,1-dioxo-1lambda6-thian-4-yl)methyl]prop-2-enamide] | 83.1 |
